Consider 21 molecules from patent US8901118B2, “Compounds and methods for kinase modulation, and indications therefor” (Plexxikon Inc., priority 2010, dated 2014).

pIC50: −log10 of the molar value. Where only a bound is given, the exact number is not on record here.

One assay addresses c-Kit kinase (Homo sapiens, UniProt P10721). Put plainly: c-Kit kinase biochemical activity assay (AlphaScreen, biotin-(E4Y)10 phosphorylation). As to conditions: 100 μM ATP; read-out: Biochemical Inhibition IC50 Kit. The method, then:
Assays for biochemical and cell based activity are known in the art, for example, U.S. Patent Application Publication Number 2009/0076046, the disclosure of which is hereby incorporated by reference as it relates to such assays. For example, in one assay the biochemical activity IC50 values are determined with respect to inhibition of c-Kit kinase activity, where inhibition of phosphorylation of a peptide substrate is measured as a function of compound concentration. Compounds to be tested are dissolved in DMSO to a concentration of 20 mM. These are diluted 30 μL into 120 μL of DMSO (4 mM) and 1 μL is added to an assay plate. These are then serially diluted […] (50 μL to 100 μL DMSO) for a total of 8 points. Plates are prepared such that each kinase reaction is 20 μL in 1× kinase buffer (25 mM HEPES, pH 7.5, 2 mM MgCl2, 2 mM MnCl2, 0.01% Tween-20, 1 mM DTT, 0.01% BSA), 5% DMSO and 100 μM ATP. Substrate is 30 nM biotin-(E4Y) 10 (Millipore). C-kit kinase (obtained from Millipore (#14-559) or is prepared as described in U.S. Patent Application Publication Number 2009/0076046, the disclosure of which is hereby incorporated by reference as it relates to this assay) is at 0.75 ng per sample. After incubation of the kinase reaction for 1 hour at room temperature, 5 μL of donor beads (Streptavidin coated beads (Perkin Elmer Life Science) final concentration 10 μg/mL) in stop buffer (25 mM Hepes pH 7.5, 100 mM EDTA, 0.01% BSA) is added, the sample is mixed and incubated for 20 minutes at room temperature before adding 5 μL of acceptor beads (PY20 coated beads (Perkin Elmer Life Science) final concentration 10 μg/mL) in stop buffer. The samples are incubated for 60 minutes at room temperature and the signal per well is read on Envision reader. Phosphorylated substrate results in binding of the PY20 antibody and association of the donor and acceptor beads such that signal correlates with kinase activity. The signal vs. compound concentration is used to determine the IC50.

In a further assay the target is CYP3A4(BQ) (Homo sapiens, UniProt P08684). The experiment in a line: CYP3A4(BQ) inhibition. It counts as in vitro ADME. The settings on record: CYP3A4, substrate BQ; read-out: Cyp IC50 3A4(BQ). The method, then:
CYP (Cytochrome P450) enzymes are the major drug metabolizing enzymes present in the liver. The inhibition of CYP enzyme activity (IC50) for each of CYP1A2, CYP2C19, CYP2C9, CYP2D6, CYP3A4(BFC) and CYP3A4(BQ) is determined for compounds, where inhibition of metabolism of a known substrate leads to a decrease in the fluorescence of the metabolized product. The fluorescence of the product is monitored as a function of compound concentration. Compounds are dissolved in DMSO to a concentration of 100 mM. These are diluted 1 μL into 82 μL of acetonitrile. An 11 μL aliquot of this solution is then added to 204 μL of cofactor mix (1.3% NADPH Regeneration system Solution A, 1.04% NADPH Regeneration system Solution B from BD Biosciences, 5% acetonitrile and 0.05% DMSO). These are then serially diluted 1:1 (160 μL to 160 μL co-factor mix) for a total of 10 points. A 10 μL aliquot of this final mixture is dispensed into 384 well assay plates and incubated for 10 minutes at 37° C. […] Assay plates are incubated at 37° C. (CYP1A2-15 min; CYP2C9-45 min; CYP2C19, 2D6 and 3A4-30 min) and read in a Tecan Safire 2 plate reader (CYP1A2, 2C19 and 3A4 409 ex/460 em; CYP2C9 and 2D6 409 ex/530 em). The signal versus compound concentration is used to determine the IC50. The enzymes and substrates for this assay are obtained from BD Biosciences.

Chain of c-Kit kinase (P10721 26-976): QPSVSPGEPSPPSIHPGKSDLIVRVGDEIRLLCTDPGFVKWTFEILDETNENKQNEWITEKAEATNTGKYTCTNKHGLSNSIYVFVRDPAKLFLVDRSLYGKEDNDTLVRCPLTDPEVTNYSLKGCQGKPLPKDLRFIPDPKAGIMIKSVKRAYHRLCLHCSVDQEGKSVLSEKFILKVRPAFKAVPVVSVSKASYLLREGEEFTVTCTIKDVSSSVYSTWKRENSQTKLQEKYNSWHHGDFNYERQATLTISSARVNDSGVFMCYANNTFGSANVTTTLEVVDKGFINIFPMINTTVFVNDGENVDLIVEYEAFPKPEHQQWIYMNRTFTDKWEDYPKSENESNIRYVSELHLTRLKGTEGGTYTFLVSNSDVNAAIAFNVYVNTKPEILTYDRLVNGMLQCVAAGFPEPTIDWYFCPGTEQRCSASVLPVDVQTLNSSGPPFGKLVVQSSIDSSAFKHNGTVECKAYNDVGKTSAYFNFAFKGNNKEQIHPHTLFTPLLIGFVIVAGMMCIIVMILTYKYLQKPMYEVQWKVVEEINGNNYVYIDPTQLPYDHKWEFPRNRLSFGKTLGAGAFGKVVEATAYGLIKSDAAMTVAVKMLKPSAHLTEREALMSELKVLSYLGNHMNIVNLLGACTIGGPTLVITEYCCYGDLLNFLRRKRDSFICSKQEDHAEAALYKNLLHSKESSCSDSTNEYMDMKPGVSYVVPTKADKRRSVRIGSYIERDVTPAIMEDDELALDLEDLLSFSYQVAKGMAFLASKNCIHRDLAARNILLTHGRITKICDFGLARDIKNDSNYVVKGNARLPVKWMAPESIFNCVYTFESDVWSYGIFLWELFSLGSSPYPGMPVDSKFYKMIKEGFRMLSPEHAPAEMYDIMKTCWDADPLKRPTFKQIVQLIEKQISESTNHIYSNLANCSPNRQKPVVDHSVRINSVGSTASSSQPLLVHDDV
Chain of CYP3A4(BQ) (P08684 whole entry): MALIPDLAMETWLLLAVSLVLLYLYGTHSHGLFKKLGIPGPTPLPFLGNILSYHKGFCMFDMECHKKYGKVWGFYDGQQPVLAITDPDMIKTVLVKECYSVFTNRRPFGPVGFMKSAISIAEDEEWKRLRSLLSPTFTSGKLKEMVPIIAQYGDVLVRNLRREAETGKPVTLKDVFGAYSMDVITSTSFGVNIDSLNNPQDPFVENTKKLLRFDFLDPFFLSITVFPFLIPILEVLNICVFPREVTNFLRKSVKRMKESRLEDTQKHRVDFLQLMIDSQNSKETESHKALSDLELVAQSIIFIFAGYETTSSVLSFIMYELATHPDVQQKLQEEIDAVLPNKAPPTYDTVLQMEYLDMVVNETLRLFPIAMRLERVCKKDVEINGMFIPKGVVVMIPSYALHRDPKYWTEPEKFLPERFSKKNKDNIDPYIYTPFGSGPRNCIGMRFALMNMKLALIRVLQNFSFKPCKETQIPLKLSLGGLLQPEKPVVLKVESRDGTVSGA

On to `O=C(c1ccc(Nc2ccc(C(F)(F)F)nc2)nc1F)c1c[nH]c2ncnc(NC3CC3)c12` [Compound P-4091, [4-(cyclopropylamino)-7H-pyrrolo[2,3-d]pyrimidin-5-yl]-[2-fluoro-6-[[6-(trifluoromethyl)-3-pyridyl]amino]-3-pyridyl]methanone], for which the results for the pIC50 on c-Kit kinase and at CYP3A4(BQ) were more than 7.00 and less than 5.00, respectively.
With `CNc1ncnc2[nH]cc(C(=O)c3ccc(Nc4ccc(C(F)(F)F)nc4)nc3F)c12` [Compound P-4092, [2-fluoro-6-[[6-(trifluoromethyl)-3-pyridyl]amino]-3-pyridyl]-[4-(methylamino)-7H-pyrrolo[2,3-d]pyrimidin-5-yl]methanone], the values for the pIC50 on c-Kit kinase and on CYP3A4(BQ) were more than 7.00 and less than 5.00, respectively.
Turning to `O=C(c1ccc(Nc2ccc(C3CC3)nc2)nc1F)c1c[nH]c2ncnc(NC3CC3)c12` [Compound P-4093, [4-(cyclopropylamino)-7H-pyrrolo[2,3-d]pyrimidin-5-yl]-[6-[(6-cyclopropyl-3-pyridyl)amino]-2-fluoro-3-pyridyl]methanone], the pIC50 at c-Kit kinase is more than 7.00; on CYP3A4(BQ), less than 5.00.
The like results for `CNc1ncnc2[nH]cc(C(=O)c3ccc(Nc4ccc(C5CC5)nc4)nc3F)c12` [Compound P-4094, [6-[(6-cyclopropyl-3-pyridyl)amino]-2-fluoro-3-pyridyl]-[4-(methylamino)-7H-pyrrolo[2,3-d]pyrimidin-5-yl]methanone] were, in that order, more than 8.00 and less than 5.00.
On the same counts, the results for `CCc1ccc(Nc2ccc(C(=O)c3c[nH]c4ncnc(NC5CCC5)c34)c(F)n2)cn1` [Compound P-4095, [4-(cyclobutylamino)-7H-pyrrolo[2,3-d]pyrimidin-5-yl]-[6-[(6-ethyl-3-pyridyl)amino]-2-fluoro-3-pyridyl]methanone] are more than 7.00 and less than 5.00.
On the same counts, the results for `CCc1ccc(Nc2ccc(C(=O)c3c[nH]c4ncnc(NC5CCC(F)(F)CC5)c34)c(F)n2)cn1` [Compound P-4096, [4-[(4,4-difluorocyclohexyl)amino]-7H-pyrrolo[2,3-d]pyrimidin-5-yl]-[6-[(6-ethyl-3-pyridyl)amino]-2-fluoro-3-pyridyl]methanone] are more than 6.00 and 5.00 to 5.30.
Consider `CCc1ccc(Nc2ccc(C(=O)c3c[nH]c4ncnc(N[C@@H](C)c5ccc(F)cc5)c34)c(F)n2)cn1` [Compound P-4097, [6-[(6-ethyl-3-pyridyl)amino]-2-fluoro-3-pyridyl]-[4-[[(1S)-1-(4-fluorophenyl)ethyl]amino]-7H-pyrrolo[2,3-d]pyrimidin-5-yl]methanone], for which the pIC50 on c-Kit kinase is more than 6.00; at CYP3A4(BQ), less than 5.00.
As to `CCc1ccc(Nc2ccc(C(=O)c3c[nH]c4ncnc(NCCCOC)c34)c(F)n2)cn1` [Compound P-4098, [6-[(6-ethyl-3-pyridyl)amino]-2-fluoro-3-pyridyl]-[4-(3-methoxypropylamino)-7H-pyrrolo[2,3-d]pyrimidin-5-yl]methanone], the pIC50 at c-Kit kinase is more than 7.00; on CYP3A4(BQ), less than 5.00.
On the same counts, the results for `CCc1ccc(Nc2ccc(C(=O)c3c[nH]c4ncnc(NC5CCCC5)c34)c(F)n2)cn1` [Compound P-4099, [4-(cyclopentylamino)-7H-pyrrolo[2,3-d]pyrimidin-5-yl]-[6-[(6-ethyl-3-pyridyl)amino]-2-fluoro-3-pyridyl]methanone] are more than 7.00 and more than 5.30.
On the same counts, the results for `CCCCNc1ncnc2[nH]cc(C(=O)c3ccc(Nc4ccc(CC)nc4)nc3F)c12` [Compound P-4100, [4-(butylamino)-7H-pyrrolo[2,3-d]pyrimidin-5-yl]-[6-[(6-ethyl-3-pyridyl)amino]-2-fluoro-3-pyridyl]methanone] are more than 7.00 and less than 5.00.
As to `CC(C)Nc1ncnc2[nH]cc(C(=O)c3ccc(NC4CCCCC4)nc3F)c12` [Compound P-4101, [6-(cyclohexylamino)-2-fluoro-3-pyridyl]-[4-(isopropylamino)-7H-pyrrolo[2,3-d]pyrimidin-5-yl]methanone], the pIC50 was more than 6.00 on c-Kit kinase and less than 5.00 at CYP3A4(BQ).
The like results for `CNc1ncnc2[nH]cc(C(=O)c3ccc(NC4CCCCC4)nc3F)c12` [Compound P-4102, [6-(cyclohexylamino)-2-fluoro-3-pyridyl]-[4-(methylamino)-7H-pyrrolo[2,3-d]pyrimidin-5-yl]methanone] were, in that order, more than 6.00 and less than 5.00.
The like results for `COc1cncc(Nc2ccc(C(=O)c3c[nH]c4ncnc(NCC(F)(F)F)c34)c(F)n2)c1` [Compound P-4103, [2-fluoro-6-[(5-methoxy-3-pyridyl)amino]-3-pyridyl]-[4-(2,2,2-trifluoroethylamino)-7H-pyrrolo[2,3-d]pyrimidin-5-yl]methanone] were, in that order, more than 6.00 and less than 5.00.
Take `COc1cncc(Nc2ccc(C(=O)c3c[nH]c4ncnc(NC5CCCCC5)c34)c(F)n2)c1` [Compound P-4104, [4-(cyclohexylamino)-7H-pyrrolo[2,3-d]pyrimidin-5-yl]-[2-fluoro-6-[(5-methoxy-3-pyridyl)amino]-3-pyridyl]methanone]: the pIC50 on c-Kit kinase was more than 6.00; on CYP3A4(BQ) it was less than 5.00.
Consider `CCCNc1ncnc2[nH]cc(C(=O)c3ccc(Nc4cncc(OC)c4)nc3F)c12` [Compound P-4105, [2-fluoro-6-[(5-methoxy-3-pyridyl)amino]-3-pyridyl]-[4-(propylamino)-7H-pyrrolo[2,3-d]pyrimidin-5-yl]methanone], for which the pIC50 was less than 6.00 on c-Kit kinase and less than 5.00 on CYP3A4(BQ).
The like results for `COc1cncc(Nc2ccc(C(=O)c3c[nH]c4ncnc(NC(C)C)c34)c(F)n2)c1` [Compound P-4106, [2-fluoro-6-[(5-methoxy-3-pyridyl)amino]-3-pyridyl]-[4-(isopropylamino)-7H-pyrrolo[2,3-d]pyrimidin-5-yl]methanone] were, in that order, more than 6.00 and less than 5.00.
For the molecule `COc1cncc(Nc2ccc(C(=O)c3c[nH]c4ncnc(NC5CC5)c34)c(F)n2)c1` [Compound P-4107, [4-(cyclopropylamino)-7H-pyrrolo[2,3-d]pyrimidin-5-yl]-[2-fluoro-6-[(5-methoxy-3-pyridyl)amino]-3-pyridyl]methanone], the pIC50 at c-Kit kinase is more than 7.00; at CYP3A4(BQ), less than 5.00.
In the case of `CNc1ncnc2[nH]cc(C(=O)c3ccc(Nc4cncc(OC)c4)nc3F)c12` [Compound P-4108, [2-fluoro-6-[(5-methoxy-3-pyridyl)amino]-3-pyridyl]-[4-(methylamino)-7H-pyrrolo[2,3-d]pyrimidin-5-yl]methanone], the values for the pIC50 on c-Kit kinase and on CYP3A4(BQ) were more than 6.00 and less than 5.00, respectively.
On the same counts, the results for `CC(C)Nc1ncnc2[nH]cc(C(=O)c3ccc(NC4CCCCC4)nc3Cl)c12` [Compound P-4109, [2-chloro-6-(cyclohexylamino)-3-pyridyl]-[4-(isopropylamino)-7H-pyrrolo[2,3-d]pyrimidin-5-yl]methanone] are more than 6.00 and less than 5.00.
With `CNc1ncnc2[nH]cc(C(=O)c3ccc(NC4CCCCC4)nc3Cl)c12` [Compound P-4110, [2-chloro-6-(cyclohexylamino)-3-pyridyl]-[4-(methylamino)-7H-pyrrolo[2,3-d]pyrimidin-5-yl]methanone], the values for the pIC50 on c-Kit kinase and at CYP3A4(BQ) were more than 6.00 and less than 5.00, respectively.
For `Cc1ccc(Nc2ccc(C(=O)c3c[nH]c4ncnc(NC5CCCCC5)c34)c(F)n2)cn1` [Compound P-4111, [4-(cyclohexylamino)-7H-pyrrolo[2,3-d]pyrimidin-5-yl]-[2-fluoro-6-[(6-methyl-3-pyridyl)amino]-3-pyridyl]methanone], the values for the pIC50 on c-Kit kinase and at CYP3A4(BQ) were more than 6.00 and 5.00 to 5.30, respectively.
